Results reported in ChEMBL document CHEMBL1909046, “DrugMatrix in vitro pharmacology data”.

Key:
[1] = biological target: T1, C-X-C chemokine receptor type 1 (Homo sapiens, UniProt P25024); note: in other assays of this panel Not Active means under 50% inhibition at 10 µM
T1 sequence (P25024 whole entry): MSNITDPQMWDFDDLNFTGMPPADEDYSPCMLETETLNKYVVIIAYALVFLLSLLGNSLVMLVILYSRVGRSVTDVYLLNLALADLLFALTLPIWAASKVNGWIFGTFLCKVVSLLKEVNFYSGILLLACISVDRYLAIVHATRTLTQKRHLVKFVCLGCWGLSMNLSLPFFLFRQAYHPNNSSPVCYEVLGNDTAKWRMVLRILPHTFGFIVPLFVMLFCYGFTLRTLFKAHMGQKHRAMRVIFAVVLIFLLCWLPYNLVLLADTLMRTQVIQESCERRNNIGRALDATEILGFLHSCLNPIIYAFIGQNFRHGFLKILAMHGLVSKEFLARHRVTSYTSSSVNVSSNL

[2] = biological target: Matrix metalloproteinase-9 (Homo sapiens, UniProt P14780); assay: biochemical; assay type: cell-based;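 note: inhibition of isolated MMP-9 enzyme activity toward a synthetic peptide substrate, from the DrugMatrix protease screening panel; in other assays of this panel Not Active means under 50% inhibition at 10 µM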
[3] = biological target: T2, Alpha-1D adrenergic receptor (Homo sapiens, UniProt P25100); assay type: cell membranes, HEK293, Membrane; conditions: hek293; note: in other assays of this panel Not Active means under 50% inhibition at 10 µM
T2 sequence (P25100 whole entry): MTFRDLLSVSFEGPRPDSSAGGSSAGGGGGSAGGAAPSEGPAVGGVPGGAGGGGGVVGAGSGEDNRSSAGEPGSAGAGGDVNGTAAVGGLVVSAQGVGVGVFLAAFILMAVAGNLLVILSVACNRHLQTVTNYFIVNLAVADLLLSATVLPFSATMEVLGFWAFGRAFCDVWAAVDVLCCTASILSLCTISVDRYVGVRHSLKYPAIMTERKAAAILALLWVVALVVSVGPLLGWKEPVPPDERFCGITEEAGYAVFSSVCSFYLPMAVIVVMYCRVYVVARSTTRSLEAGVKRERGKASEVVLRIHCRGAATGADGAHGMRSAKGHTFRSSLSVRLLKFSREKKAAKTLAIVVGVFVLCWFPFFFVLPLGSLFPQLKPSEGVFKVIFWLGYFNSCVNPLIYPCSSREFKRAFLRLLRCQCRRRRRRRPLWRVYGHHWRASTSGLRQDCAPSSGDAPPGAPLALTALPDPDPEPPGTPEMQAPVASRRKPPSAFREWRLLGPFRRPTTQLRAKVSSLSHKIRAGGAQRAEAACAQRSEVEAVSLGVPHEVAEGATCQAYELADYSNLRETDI

[4] = biological target: T3, Receptor-type tyrosine-protein phosphatase C (Homo sapiens, UniProt P08575); set-up: species or system Escherichia coli;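 note: inhibition of CD45 enzyme activity measured using DiFMUP as substrate; in other assays of this panel Not Active means under 50% inhibition at 10 µM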
T3 sequence (P08575 whole entry): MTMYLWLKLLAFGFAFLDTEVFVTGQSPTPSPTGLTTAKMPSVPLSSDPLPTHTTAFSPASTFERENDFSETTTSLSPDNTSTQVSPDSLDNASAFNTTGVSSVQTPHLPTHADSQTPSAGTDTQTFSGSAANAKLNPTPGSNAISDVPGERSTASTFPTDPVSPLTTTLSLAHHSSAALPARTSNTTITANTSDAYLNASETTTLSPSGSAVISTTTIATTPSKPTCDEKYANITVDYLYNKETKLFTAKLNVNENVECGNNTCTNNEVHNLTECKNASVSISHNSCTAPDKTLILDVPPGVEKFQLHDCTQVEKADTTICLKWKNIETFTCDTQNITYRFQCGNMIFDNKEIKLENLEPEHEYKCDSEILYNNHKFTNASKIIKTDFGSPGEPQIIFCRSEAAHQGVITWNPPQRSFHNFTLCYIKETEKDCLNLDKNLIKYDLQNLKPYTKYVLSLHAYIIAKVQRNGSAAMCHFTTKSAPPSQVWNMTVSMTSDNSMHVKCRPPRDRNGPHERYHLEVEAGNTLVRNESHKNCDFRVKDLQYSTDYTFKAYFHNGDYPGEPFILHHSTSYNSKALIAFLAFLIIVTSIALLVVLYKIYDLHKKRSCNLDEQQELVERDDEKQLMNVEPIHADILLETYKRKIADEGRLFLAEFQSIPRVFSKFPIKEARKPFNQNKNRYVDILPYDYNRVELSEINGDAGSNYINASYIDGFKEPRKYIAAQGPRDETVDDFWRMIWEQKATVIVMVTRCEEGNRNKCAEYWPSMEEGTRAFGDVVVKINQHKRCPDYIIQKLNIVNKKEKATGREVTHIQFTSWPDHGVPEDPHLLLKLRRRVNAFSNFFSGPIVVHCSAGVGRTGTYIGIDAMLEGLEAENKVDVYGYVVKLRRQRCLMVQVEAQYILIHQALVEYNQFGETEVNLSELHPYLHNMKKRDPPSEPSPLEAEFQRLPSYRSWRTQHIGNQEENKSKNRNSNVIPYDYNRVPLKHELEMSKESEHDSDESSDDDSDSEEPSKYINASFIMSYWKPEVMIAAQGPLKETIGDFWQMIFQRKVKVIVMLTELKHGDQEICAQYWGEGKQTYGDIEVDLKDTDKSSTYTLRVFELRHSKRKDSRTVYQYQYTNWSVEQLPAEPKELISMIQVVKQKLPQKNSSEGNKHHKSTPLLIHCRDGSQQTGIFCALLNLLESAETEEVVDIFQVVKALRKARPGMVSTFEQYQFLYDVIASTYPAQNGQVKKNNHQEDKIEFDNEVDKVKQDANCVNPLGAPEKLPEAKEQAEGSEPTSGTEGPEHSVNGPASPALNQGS

[5] = DRUGMATRIX: Potassium Channel [KATP] radioligand binding (ligand: [3H] Glyburide); assay type: cell membranes, Membrane; conditions: hit-t15; Not Active = under 50% inhibition at 10 µM
[6] = biological target: T4, C-C chemokine receptor type 4 (Homo sapiens, UniProt P51679); assay type: cell membranes, Membrane; conditions: chem-1; note: in other assays of this panel Not Active means under 50% inhibition at 10 µM
T4 sequence (P51679 whole entry): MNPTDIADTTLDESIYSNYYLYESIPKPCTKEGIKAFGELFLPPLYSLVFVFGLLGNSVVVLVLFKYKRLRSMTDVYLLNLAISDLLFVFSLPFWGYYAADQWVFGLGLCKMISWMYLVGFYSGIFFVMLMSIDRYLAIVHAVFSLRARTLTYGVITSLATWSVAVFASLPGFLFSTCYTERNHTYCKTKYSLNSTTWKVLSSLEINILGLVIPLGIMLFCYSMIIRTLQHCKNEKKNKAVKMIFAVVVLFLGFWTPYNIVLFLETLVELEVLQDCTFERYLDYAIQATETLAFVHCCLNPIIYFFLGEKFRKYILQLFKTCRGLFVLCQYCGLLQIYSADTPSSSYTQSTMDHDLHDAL

[7] = biological target: Protein phosphatase 3 catalytic subunit alpha (Homo sapiens, UniProt Q08209); set-up: species or system Escherichia coli

Chain of Matrix metalloproteinase-9 (P14780 whole entry): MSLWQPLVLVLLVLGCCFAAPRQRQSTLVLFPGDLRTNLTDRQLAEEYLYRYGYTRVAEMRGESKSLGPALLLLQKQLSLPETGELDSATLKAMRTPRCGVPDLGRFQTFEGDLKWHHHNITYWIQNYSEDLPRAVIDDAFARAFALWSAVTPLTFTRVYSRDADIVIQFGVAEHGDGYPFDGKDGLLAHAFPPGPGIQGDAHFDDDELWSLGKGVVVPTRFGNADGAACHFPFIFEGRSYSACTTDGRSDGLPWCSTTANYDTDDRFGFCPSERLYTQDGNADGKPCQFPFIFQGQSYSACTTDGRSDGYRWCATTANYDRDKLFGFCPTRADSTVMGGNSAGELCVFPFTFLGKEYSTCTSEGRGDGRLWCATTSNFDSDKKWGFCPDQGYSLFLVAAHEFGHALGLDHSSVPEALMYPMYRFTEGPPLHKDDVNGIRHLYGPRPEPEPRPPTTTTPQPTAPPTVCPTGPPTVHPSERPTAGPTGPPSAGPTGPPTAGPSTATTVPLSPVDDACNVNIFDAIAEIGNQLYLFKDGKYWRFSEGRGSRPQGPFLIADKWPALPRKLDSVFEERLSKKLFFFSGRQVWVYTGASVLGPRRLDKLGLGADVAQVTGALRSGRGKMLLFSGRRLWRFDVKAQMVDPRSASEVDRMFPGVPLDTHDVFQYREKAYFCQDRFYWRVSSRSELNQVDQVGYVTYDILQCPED

COc1ccc(Cc2nccc3cc(OC)c(OC)cc23)cc1OC [PAPAVERINE]
Not Active: IC50 [1] | IC50 [2] | IC50 [3] | IC50 [4] | IC50 [5] | Ki [5] | IC50 [6] | IC50 [7]

O=c1cc(-c2ccccc2)oc2ccc3ccccc3c12 [BETA-NAPHTHOFLAVONE]
Not Active: IC50 [1] | IC50 [2] | IC50 [3] | IC50 [4] | IC50 [5] | Ki [5] | IC50 [6] | IC50 [7]

CC(=O)O[C@]1(C(C)=O)CC[C@H]2[C@@H]3C=C(Cl)C4=CC(=O)[C@@H]5C[C@@H]5[C@]4(C)[C@H]3CC[C@@]21C [CYPROTERONE ACETATE]
Not Active: IC50 [1] | IC50 [2] | Ki [3] | IC50 [4] | IC50 [5] | Ki [5] | IC50 [6] | IC50 [7]

CCN[C@@H](C)Cc1cccc(C(F)(F)F)c1 [DEXFENFLURAMINE]
Not Active: IC50 [1] | IC50 [2] | IC50 [3] | IC50 [4] | IC50 [5] | Ki [5] | IC50 [6] | IC50 [7]

Nn1nnc2ccccc21
Not Active: IC50 [1] | IC50 [2] | IC50 [3] | IC50 [4] | IC50 [5] | Ki [5] | IC50 [6] | IC50 [7]

O=C(O)Cc1ccc(-c2ccccc2)cc1 [FELBINAC]
Not Active: IC50 [1] | IC50 [2] | IC50 [3] | IC50 [4] | IC50 [5] | Ki [5] | IC50 [6] | IC50 [7]
